Data set [1] is described as follows: Competitive slurrying experiments (solid form by XRPD after one week). The format is physicochemical. Here is the method:
10 mg (+/−1 mg) each of the Form I, Form II, Form III, 1,2-dimethoxtethane solvate and the hydrate of (S)-3-(3-(1-methyl-2-oxo-5-(pyrazolo[1,5-a]pyridine-3-yl)-1H-imidazo[4,5-b]pyridine-3(2H)-yl)piperidin-1-yl)-3-oxopropanenitrile was added to each of twelve vials. The solvent systems used had been pre-saturated with (S)-3-(3-(1-methyl-2-oxo-5-(pyrazolo[1,5-a]pyridine-3-yl)-1H-imidazo[4,5-b]pyridine-3(2H)-yl)piperidin-1-yl)-3-oxopropanenitrile by shaking a slurry of Form I at the relevant temperature for 16 hours and then passing through a 1 μm glass filter.
The resulting slurries were agitated at the temperature shown for a period of one week. The solids present were then isolated by filtration, air dried and characterised by XRPD.

Data set [2] is described as follows: Solubility of the compound in water (remark in the slurrying results). The format is physicochemical.

We go through four molecules from patent US10508123B2, “Polymorphs” (Vectura Limited, priority 2015, dated 2019).

For `Cn1c(=O)n([C@H]2CCCN(C(=O)CC#N)C2)c2nc(-c3cnn4ccccc34)ccc21` [Compound (I), (S)-3-(3-(1-methyl-2-oxo-5-(pyrazolo[1,5-a]pyridine-3-yl)-1H-imidazo[4,5-b]pyridine-3(2H)-yl)piperidin-1-yl)-3-oxopropanenitrile], the XRPD characterisation result in data set [1] (vial 1, water, 5 °C, slurry of Form I, II, III, 1,2-dimethoxyethane solvate and hydrate agitated one week, poor recovery hampered interpretation) was “Form II/Hydrate*”; in data set [1] (vial 2, water, 25 °C, mixed-form slurry, one week), “Form II/Form III/Hydrate”; in data set [1] (vial 3, water, 50 °C, mixed-form slurry, one week), “Form II”; in data set [1] (vial 4, MEK, 5 °C, mixed-form slurry, one week) it was “Form II”; in data set [1] (vial 5, MEK, 25 °C, mixed-form slurry, one week), “Form II”; in data set [1] (vial 6, MEK, 50 °C, mixed-form slurry, one week), “Form II”. The XRPD characterisation entry in data set [1] (vial 7, EtOAc, 5 °C, mixed-form slurry, one week) is listed as “Form II/1,2-dimethoxyethane solvate”; in data set [1] (vial 8, EtOAc, 25 °C, mixed-form slurry, one week), “Form II/1,2-dimethoxyethane solvate”; in data set [1] (vial 9, EtOAc, 50 °C, mixed-form slurry, one week) it was “Form II”; in data set [1] (vial 10, IPA, 5 °C, mixed-form slurry, one week) it was “Form II”; in data set [1] (vial 11, IPA, 25 °C, mixed-form slurry, one week), “Form II/1,2-dimethoxyethane solvate”; in data set [1] (vial 12, IPA, 50 °C, mixed-form slurry, one week) it was “Form II”. In addition, in data set [2], the solubility in water entry is “poor solubility”.

On to `Cn1c(=O)n([C@H]2CCCN(C(=O)CC#N)C2)c2nc(-c3cnn4ccccc34)ccc21` [Form I, (S)-3-(3-(1-methyl-2-oxo-5-(pyrazolo[1,5-a]pyridine-3-yl)-1H-imidazo[4,5-b]pyridine-3(2H)-yl)piperidin-1-yl)-3-oxopropanenitrile], for which the “form visible in the isolated solids” value in data set [1] (all vials, except one of the experiments in water) is given as “No Form I or Form III material was visible”.

With `Cn1c(=O)n([C@H]2CCCN(C(=O)CC#N)C2)c2nc(-c3cnn4ccccc34)ccc21` [Form II, (S)-3-(3-(1-methyl-2-oxo-5-(pyrazolo[1,5-a]pyridine-yl)-1H-imidazo[45-b]pyridine-3(2H)-yl)piperidin-1-yl)-3-oxopropanenitrile], in data set [1] (at all three temperatures evaluated (5, 25, 50 °C)), the “thermodynamic stability among the three anhydrous forms” value is “most thermodynamically stable”. For the same molecule, the “thermodynamic stability compared to the other polymorphic forms or the solvates and hydrates” value in data set [1] (at temperatures up to 50 °C) was “greater thermodynamic stability”. Further, the “thermodynamic stability compared to the Form 1 and Form III polymorphs” value in data set [1] (competitive slurrying experiments) was “surprisingly advantageous thermodynamic stability”.

On to `Cn1c(=O)n([C@H]2CCCN(C(=O)CC#N)C2)c2nc(-c3cnn4ccccc34)ccc21` [Hydrate I, (S)-3-(3-(1-methyl-2-oxo-5-(pyrazolo[1,5-a]pyridine-3-yl)-1H-imidazo[4,5-b]pyridine-3(2H)-yl)piperidin-1-yl)-3-oxopropanenitrile], for which the “stability of the hydrate relative to anhydrous Form II” value in data set [1] (in organic solvents) is given as “less stable than the anhydrous Form II”. In addition, the “conversion of the hydrate in the slurry” value in data set [1] (water at 50 °C, not at 25 °C or 5 °C) was “complete conversion to Form II”.
